Test: Double CuAAC of unprotected bis-azido peptide with triethynylphosphine oxide (1.2 eq), CuBr 10 eq, THPTA 20 eq; two-component cyclisation to ethynyl-ditriazolyl-phosphine oxide (EDPO) cyclic peptide; forms two 1,4-triazoles
Settings: the molecule shown is the open-chain precursor, NaOAc buffer (100 mM, pH 5)/MeCN 20%, ~2% DMSO, 1.0 mM, 25.0 °C, 0.083 h

Compound `[N-]=[N+]=NCCCC[C@H](NC(=O)CN)C(=O)N[C@@H](CCCNC(=N)N)C(=O)N[C@@H](CCCNC(=N)N)C(=O)N[C@@H](CCCNC(=N)N)C(=O)N[C@@H](CCCNC(=N)N)C(=O)N[C@@H](CCCNC(=N)N)C(=O)N[C@@H](CCCNC(=N)N)C(=O)N[C@@H](CCCNC(=N)N)C(=O)N[C@@H](CCCNC(=N)N)C(=O)N[C@@H](CCCCN=[N+]=[N-])C(=O)NCC(N)=O` has a ring closure, isolated yield (43-membered ring) of 27%.
Compound `[N-]=[N+]=NCCCC[C@H](NC(=O)[C@@H](CCCNC(=N)N)NC(=O)[C@H](CCCNC(=N)N)NC(=O)[C@@H](CCCCN)NC(=O)[C@H](CCCCN)NC(=O)[C@@H](CCCNC(=N)N)NC(=O)CNC(=O)[C@@H](CCCNC(=N)N)NC(=O)[C@H](CCCNC(=N)N)NC(=O)[C@@H](CCCNC(=N)N)NC(=O)[C@@H](N)CCCCN=[N+]=[N-])C(N)=O` has a ring closure, isolated yield (46-membered ring) of 39%.
With `[N-]=[N+]=NCCCC[C@H](NC(=O)CN)C(=O)N[C@@H](CCCNC(=N)N)C(=O)N[C@@H](CCCNC(=N)N)C(=O)N[C@@H](CCCNC(=N)N)C(=O)N[C@@H](CCCNC(=N)N)C(=O)N[C@@H](CCCNC(=N)N)C(=O)N[C@@H](CCCNC(=N)N)C(=O)N[C@@H](CCCNC(=N)N)C(=O)N[C@@H](CCCNC(=N)N)C(=O)N[C@@H](CCCNC(=N)N)C(=O)N[C@@H](CCCNC(=N)N)C(=O)N[C@@H](CCCCN=[N+]=[N-])C(=O)NCC(N)=O` the ring closure, isolated yield (49-membered ring) was 18%.
For `[N-]=[N+]=NCCCC[C@H](NC(=O)[C@H](Cc1ccc(O)cc1)NC(=O)[C@H](CC(=O)O)NC(=O)CNC(=O)[C@H](CCCNC(=N)N)NC(=O)[C@H](CCCCN)NC(=O)CN=[N+]=[N-])C(N)=O` [N3-Gly(azidoacetyl)-Lys-Arg-Gly-Asp-Tyr-Lys(N3)-NH2], the ring closure, isolated yield (30-membered ring) was 41%.
`CC(=O)N[C@@H](CCC(=O)O)C(=O)N[C@H](C(=O)N[C@@H](Cc1ccccc1)C(=O)N[C@@H](CCCCN=[N+]=[N-])C(=O)N[C@@H](CC(=O)O)C(=O)N[C@@H](CC(C)C)C(=O)N[C@@H](Cc1c[nH]c2ccccc12)C(=O)N[C@@H](CCCNC(=N)N)C(=O)N[C@@H](CC(C)C)C(=O)N[C@@H](CC(C)C)C(=O)N[C@@H](CCCCN=[N+]=[N-])C(=O)N[C@@H](CCC(=O)O)C(=O)N[C@@H](CC(N)=O)C(N)=O)[C@@H](C)O` gave a ring closure, isolated yield (37-membered ring) of 24%.
Work on `CC(C)C[C@H](NC(=O)CN=[N+]=[N-])C(=O)N[C@@H](Cc1ccc(O)cc1)C(=O)N[C@@H](CCCNC(=N)N)C(=O)N[C@@H](C)C(=O)N[C@@H](CCCCN=[N+]=[N-])C(N)=O` [N3-Gly(azidoacetyl)-Leu-Tyr-Arg-Ala-Lys(N3)-NH2] yielded a ring closure, isolated yield (27-membered ring) of 39%.

From publication PMC12435405
